Measured values reported in US9079895B2, “Morpholino compounds, uses and methods” (University of Dundee, priority 2012, dated 2015).
Where a name gives a salt, the structure may show the parent alone.

Experiments:
5HT1a receptor = 5HT1a receptor (Homo sapiens (Human), UniProt P08908); experiment: Secondary radioligand binding assay, 5HT1a; details: average of at least two experiments
Experimental: (§1) Assay Buffer: Standard Binding Buffer (50 mM Tris-HCl, 10 mM MgCl2, 1 mM EDTA, pH 7.4)
(§2) Membrane Fraction Source: Transiently or stably transfected cell lines (e.g., HEK293, COS, CHO, NIH3T3)

5HT2a receptor = 5HT2a receptor (Homo sapiens (Human), UniProt P28223); experiment: Secondary radioligand binding assay, 5HT2a; details: average of at least two experiments
Experimental: as §1, §2

5HT2c receptor = 5HT2c receptor (Homo sapiens (Human), UniProt P28335); experiment: Secondary radioligand binding assay, 5HT2c; details: average of at least two experiments
Experimental: as §1, §2

dopamine D4 receptor = dopamine D4 receptor (Homo sapiens (Human), UniProt P21917); experiment: Secondary radioligand binding assay, D4; details: receptor binding; average of at least two experiments; read-out: Ki D4
Experimental: 1. Secondary Radioligand Binding Assays
The detailed experimental protocols for the radioligand and functional receptor assays are available on the NIMH PDSP website at http://pdsp.med.unc.edu/UNC-CH %20Protocol %20Book.pdf.
Radioligand is diluted to five times the assay concentration (see Table 18) in Standard Binding Buffer. Typically, the assay concentration of radioligand is a value between one half the KD and the KD of a particular radioligand at its target. 50 μl aliquots of radioligand are dispensed into the wells of a 96-well plate containing 100 μl of Standard Binding Buffer. Then, duplicate 50 μl aliquots of the test and reference compound dilutions are added.
The 250 μl reactions are incubated at room temperature and shielded from light (to prevent photolysis of light-sensitive ligands) for 1.5 hours, then harvested by rapid filtration onto Whatman GF/B glass fiber filters pre-soaked with 0.3% polyethyleneimine using a 96-well Brandel harverster. Four rapid 500 μl washes are performed with chilled Standard Binding Buffer to reduce non-specific binding. Filters are placed in 6 ml scintillation tubes and allowed to dry overnight. The next day, 4 ml of EcoScint scintillation cocktail (National Diagnostics) are added to each tube. The tubes are capped, labeled, and counted by liquid scintillation counting. […] The filter mats are dried, then scintillant is melted onto the filters and the radioactivity retained on the filters is counted in a Microbeta scintillation counter.
Raw data (dpm) representing total radioligand binding (i.e. specific+non-specific binding) are plotted as a function of the logarithm of the molar concentration of the competitor (i.e. test or reference compound).
B. Dopamine Receptors: D1, D2, D3, D4, D5 Assay Buffers: Dopamine Binding Buffer (50 mM NaCl, 50 mM HEPES-HCl, 5 mM MgCl2, 0.5 mM EDTA, pH 7.4) Membrane Fraction Source: Transiently or stably transfected cell lines (e.g. HEK293, COS, CHO, NIH3T3)
The method is carried out in the manner described for the serotonin receptor assay above. Eleven dilutions (5× assay concentration) of the test and reference (see Table 19) compounds are prepared in Dopamine Binding Buffer by serial dilution, as previously described. Radioligand is diluted to five times the assay concentration (see Table 20) in Dopamine Binding Buffer.

Sequence of 5HT2a receptor (P28223 whole entry): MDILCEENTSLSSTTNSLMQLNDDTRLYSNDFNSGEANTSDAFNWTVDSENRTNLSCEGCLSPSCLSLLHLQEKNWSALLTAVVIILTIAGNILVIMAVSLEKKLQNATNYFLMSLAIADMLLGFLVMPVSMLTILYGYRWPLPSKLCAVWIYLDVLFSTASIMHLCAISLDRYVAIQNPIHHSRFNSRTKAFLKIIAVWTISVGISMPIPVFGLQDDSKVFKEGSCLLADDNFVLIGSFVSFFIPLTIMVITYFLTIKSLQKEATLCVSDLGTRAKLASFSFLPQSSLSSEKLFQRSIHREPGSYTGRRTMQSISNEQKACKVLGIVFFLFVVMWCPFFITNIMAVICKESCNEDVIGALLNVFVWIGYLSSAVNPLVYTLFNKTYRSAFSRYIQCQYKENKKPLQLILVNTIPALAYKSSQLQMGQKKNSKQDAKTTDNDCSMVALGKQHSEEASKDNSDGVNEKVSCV
Sequence of dopamine D4 receptor (P21917 whole entry, species assumed): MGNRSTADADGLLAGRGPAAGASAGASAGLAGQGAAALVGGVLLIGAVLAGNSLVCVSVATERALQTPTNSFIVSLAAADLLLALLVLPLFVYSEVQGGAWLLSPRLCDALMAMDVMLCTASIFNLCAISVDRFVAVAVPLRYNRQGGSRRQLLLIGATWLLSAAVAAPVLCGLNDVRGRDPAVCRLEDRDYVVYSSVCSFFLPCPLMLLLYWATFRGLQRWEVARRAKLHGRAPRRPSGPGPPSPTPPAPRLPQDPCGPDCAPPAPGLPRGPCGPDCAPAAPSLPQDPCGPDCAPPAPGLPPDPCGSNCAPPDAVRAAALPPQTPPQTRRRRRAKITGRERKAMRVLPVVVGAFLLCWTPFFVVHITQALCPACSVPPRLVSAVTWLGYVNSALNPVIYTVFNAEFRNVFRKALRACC
Sequence of 5HT1a receptor (P08908 whole entry): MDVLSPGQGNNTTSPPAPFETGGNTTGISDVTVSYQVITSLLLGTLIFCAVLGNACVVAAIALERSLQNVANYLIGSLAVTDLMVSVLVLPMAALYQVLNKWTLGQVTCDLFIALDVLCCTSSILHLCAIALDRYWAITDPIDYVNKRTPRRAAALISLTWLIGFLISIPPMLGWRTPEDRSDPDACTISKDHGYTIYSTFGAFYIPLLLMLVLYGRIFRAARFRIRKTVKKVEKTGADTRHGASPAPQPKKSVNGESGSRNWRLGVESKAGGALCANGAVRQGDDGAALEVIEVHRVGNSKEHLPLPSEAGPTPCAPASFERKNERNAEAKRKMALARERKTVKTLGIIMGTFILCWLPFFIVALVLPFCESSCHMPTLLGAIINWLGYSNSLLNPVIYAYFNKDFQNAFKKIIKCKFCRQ
Sequence of 5HT2c receptor (P28335 33-458): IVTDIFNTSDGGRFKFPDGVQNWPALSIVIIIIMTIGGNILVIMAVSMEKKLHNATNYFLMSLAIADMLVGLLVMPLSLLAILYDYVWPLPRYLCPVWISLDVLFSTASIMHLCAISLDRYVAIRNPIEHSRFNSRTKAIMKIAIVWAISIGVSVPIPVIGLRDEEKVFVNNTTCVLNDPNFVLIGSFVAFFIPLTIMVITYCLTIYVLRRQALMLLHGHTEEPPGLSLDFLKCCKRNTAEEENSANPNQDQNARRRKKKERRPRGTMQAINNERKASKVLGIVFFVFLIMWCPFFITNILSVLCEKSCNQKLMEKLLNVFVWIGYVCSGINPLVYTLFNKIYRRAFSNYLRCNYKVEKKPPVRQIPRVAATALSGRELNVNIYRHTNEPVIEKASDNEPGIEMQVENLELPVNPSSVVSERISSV

| SMILES | Ki (5HT1a receptor) [nM] | Ki (5HT2a receptor) [nM] | Ki (5HT2c receptor) [nM] | Ki (dopamine D4 receptor) [nM] |
| --- | --- | --- | --- | --- |
| COc1cccc(OC[C@H]2CN(CCN3CCc4ccccc43)CCO2)c1 [Compound 25r, (R)-4-(2-(Indolin-1-yl)ethyl)-2-((3-methoxyphenoxy)methyl)morpholine] | 1470 | 3780 | – | – |
| Fc1ccc(OC[C@@H]2CN(CCN3CCc4ccccc43)CCO2)cc1 [Compound 32s, (S)-2-((4-fluorophenoxy)methyl)-4-(2-(indolin-1-yl)ethyl)morpholine hydrochloride] | – | 374 | 1110 | 3930 |
